Data set [1] in a line: logP determination (acidic, formic acid).
For data set [2], the system named is Myzus persicae. Kind of data set: Myzus test (spray treatment). The format is in vivo. The conditions noted are these: foliar, read-out: Wirkung. From the text:
Myzus-Test (Spritzbehandlung)
Zur Herstellung einer zweckmäßigen Wirkstoffzubereitung vermischt man 1 Gewichtsteil Wirkstoff mit den angegebenen Mengen Lösungsmittel und Emulgator und verdünnt das Konzentrat mit emulgatorhaltigem Wasser auf die gewünschte Konzentration.
Chinakohlblattscheiben (Brassica pekinensis), die von allen Stadien der Grünen Pfirsichblattlaus (Myzus persicae) befallen sind, werden mit einer Wirkstoffzubereitung der gewünschten Konzentration gespritzt.
Nach der gewünschten Zeit wird die Wirkung in % bestimmt. Dabei bedeutet 100 %, dass alle Blattläuse abgetötet wurden; 0 % bedeutet, dass keine Blattläuse, abgetötet wurden.

Data set [3] can be described thus: physchem. The conditions noted are these: formic acid.
The subject of data set [4] is Myzus persicae. In words: Myzus test - oral. It counts as in vivo. The conditions noted are these: read-out: Wirkung. From the text: Lösungsmittel: 80,0 Gewichtsteile Aceton
Zur Herstellung einer zweckmäßigen Wirkstoffzubereitung vermischt man 1 Gewichtsteil Wirkstoff mit den angegebenen Mengen Lösungsmittel und verdünnt das Konzentrat mit Wasser auf die gewünschte Konzentration.
Gefäße werden mit allen Stadien der Grünen Pfirsichblattlaus (Myzus persicae) besetzt, durch saugen an der Wirkstoffzubereitung der gewünschten Konzentration wird behandelt.
Nach der gewünschten Zeit wird die Wirkung in % bestimmt. Dabei bedeutet 100 %, dass alle Blattläuse abgetötet wurden; 0 % bedeutet, dass keine Blattläuse abgetötet wurden.

The mark [5] stands for this setting: 500 g/ha, spray on infested Brassica pekinensis leaf discs, 100 % = all aphids killed.
Where [6] appears, read: 500 g/ha, oral uptake by sucking on the active compound preparation, 100 % = all aphids killed.

Each structure is given as a SMILES string. A value given as a limit tells only on which side of the number the result lay.

The term logP denotes a log measure of how a compound divides between an organic and an aqueous phase. A low value points to a more hydrophilic compound.

`O=C(NCCCl)NC1CCc2ccsc21` (stereo not shown) [Beispiel 1, 1-(2-Chloroethyl)-3-(5,6-dihydro-4H-cyclopenta[b]thien-6-yl)-harnstoff] had a logP in data set [1] (formic acid) of 1.77.

With `c1cc2c(s1)C(NC1=NCCO1)CC2` (stereo not shown) [Beispiel 2, N-(5,6-Dihydro-4H-cyclopenta[b]thien-6-yl)-4,5-dihydro-1,3-oxazol-2-amin], the mortality at 500 g/ha in data set [2] (in Brassica rapa) is at least 80%. This compound yielded a logP in data set [3] of 0.42.

Take `COCCNC(=S)N1CCO/C1=N\C1CCc2ccsc21` (stereo not shown) [Beispiel 3, (2Z)-2-(5,6-Dihydro-4H-cyclopenta[b]thien-6-ylimino)-N-(2-methoxyethyl)-1,3-oxazolidine-3-carbothioamid]: the mortality at 500 g/ha in data set [2] (setting [5]) was at least 80%. For the same compound, the logP in data set [1] (acidic) is 3.32.

As to `O=C(NCCCl)NC1CCc2ncccc21` (stereo not shown) [Beispiel 4, 1-(2-Chloroethyl)-3-(6,7-dihydro-5H-cyclopenta[b]pyridin-5-yl)-harnstoff], in data set [1] (acidic), the logP was 0.23.

On to `COCCNC(=S)N1CCO/C1=N\C1CCc2ncccc21` (stereo not shown) [Beispiel 6, (2Z)-2-(6,7-Dihydro-5H-cyclopenta[b]pyridin-5-ylimino)-N-(2-methoxyethyl)-1,3-oxazolidine-3-carbothioamid], for which the mortality at 500 g/ha in data set [2] (setting [5]) is at least 80%. The compound further returned a logP in data set [1] (acidic) of 1.03.

As for `CNC(=S)N1CCOC1=NC1CCc2ccsc21` (stereo not shown) [Beispiel 7], the mortality at 500 g/ha in data set [2] (setting [5]) was at least 80%.

As for `CCOC(=O)CNC(=S)N1CCOC1=NC1CCc2ccsc21` (stereo not shown) [Beispiel 14], in data set [2] (setting [5]), the mortality at 500 g/ha was at least 80%.

With `Clc1cc2c(s1)C(N=C1NCCO1)CC2` (stereo not shown) [Beispiel 18], the mortality at 500 g/ha in data set [2] (setting [5]) was at least 80%.

As for `CNC(=S)N1CCOC1=NC1CCc2cc(Cl)sc21` (stereo not shown) [Beispiel 19], the mortality at 500 g/ha in data set [2] (setting [5]) is at least 80%.

For the compound `CNC(=S)N1CCOC1=NC1CCc2ncccc21` (stereo not shown) [Beispiel 30], the mortality at 500 g/ha in data set [2] (setting [5]) is at least 80%.

Turning to `Cc1cnc2c(c1)CCC2N=C1NCCO1` (stereo not shown) [Beispiel 43], the mortality at 500 g/ha in data set [4] (po) was at least 80%.

As for `CNC(=S)N1CCOC1=NC1CCc2cc(C)cnc21` (stereo not shown) [Beispiel 44], the mortality at 500 g/ha in data set [4] (setting [6]) was at least 80%.

`CCOC(=O)CNC(=S)N1CCOC1=NC1CCc2cc(C)cnc21` (stereo not shown) [Beispiel 47]: the mortality at 500 g/ha in data set [4] (setting [6]) is at least 80%.

The record behind these values is patent EP2014168A1, “Insecticidal heterocyclic compounds” (priority 2007, dated 2009).
